US8865725B2, “Substituted imidazopyrimidin-5(6H)-ones as allosteric modulators of MGLUR5 receptors” (Vanderbilt University, priority 2011, dated 2014)
Where two headings read alike, the source gives them in different places.

Columns and labels:
human mGluR5a receptor = human mGluR5a receptor (Homo sapiens, UniProt P41594); test: Cell-based functional assay (Ca2+ mobilization, FDSS) for positive allosteric modulation of mGluR5; conditions: for EC50: potentiation in presence of EC20 glutamate; for Emax: maximum % effect in concentration-response curve, as percent of response to maximally effective glutamate concentration
Experimental: The mGluR5 activity was determined using the metabotropic glutamate receptor activity assays in human embryonic kidney cells as described herein, wherein the human embryonic kidney cells were transfected with human mGluR5. The compounds in Table I were synthesized with methods identical or analogous to those shown herein. The Synthetic Route Reference indicated in Table I refers to the Reaction Scheme number described above. The requisite starting materials were commercially available, described in the literature, or readily synthesized by one skilled in the art of organic synthesis.
Human mGluR5a cDNA in pCMV6-XL6 mammalian expression plasmid was purchased from OriGene Technologies, Inc. (catalogue number SC326357) and subcloned into pcDNA3.1(−). […] Monoclones were named for the species (“H” for human) plus the location on the plate (e.g. “10H”).
HEK cells transfected with the human mGluR5a receptor (H10H or H12H cell line) were plated at 15,000 cells/well in clear-bottomed poly-D-lysine-coated assay plates (BD Falcon) in glutamate-glutamine-free growth medium and incubated overnight at 37° C. and 5% CO2. Cell-lines used were either the H10H or H12H cell-lines expressing the human mGluR5 receptor. The following day, the growth medium was removed and the cells were washed with assay buffer containing 1× Hank's balanced salt solution (Invitrogen, Carlsbad, Calif.), 20 mM HEPES, 2.5 mM probenecid, pH 7.4 and left with 20 μL of this reagent. Following this step, the cells were loaded with calcium indicator dye, fluo-4 AM, to a final concentration of 2 μM and incubated for 40-45 min at 37° C. The dye solution was removed and replaced with assay buffer. Cell plates were held for 10-15 min at room temperature and were then loaded into the Functional Drug Screening System 6000 (FDSS 6000, Hamamatsu, Japan).
After establishment of a fluorescence baseline for about 3 seconds, the compounds of the present invention were added to the cells, and the response in cells was measured. 2.3 minutes later an EC20 concentration of the mGluR5 receptor agonist glutamate was added to the cells, and the response of the cells was measured for about 1.7 minutes. All test compounds were dissolved and diluted to a concentration of 10 mM in 100% DMSO and then serially diluted into assay buffer for a 2× stock solution in 0.6% DMSO; stock compounds were then added to the assay for a final DMSO concentration of 0.3% after the first addition to the assay well. Calcium fluorescence measures were recorded as fold over basal fluorescence; raw data was then normalized to the maximal response to glutamate.
The concentration-response curves of compounds of the present invention, obtained in the presence of EC20 of mGluR5 receptor agonist glutamate to determine positive allosteric modulation, were generated using Microsoft Excel with IDBS XLfit add-ins. The raw data file containing all time points was used as the data source in the analysis template. This was saved by the FDSS as a tab-delimitted text file. Data were normalized using a static ratio function (F/F0) for each measurement of the total 350 values per well divided by each well's initial value. Data was then reduced as to peak amplitudes (Max—Initial Min) using a time range that starts approximately 1 second after the glutamate EC20 addition and continues for approximately 40 seconds. This is sufficient time to capture the peak amplitude of the cellular Calcium response. Individual amplitudes were expressed as % EMax by multiplying each amplitude by 100 and then dividing the product by the mean of the amplitudes derived from the glutamate ECMax-treated wells. pEC50 values for test compounds were generated by fitting the normalized values versus the log of the test compound concentration (in mol/L) using a 4 parameter logistic equation where none of the parameters were fixed.

[1] = HEK cells transfected with human mGluR5a (H10H or H12H), read-out: EC50
[2] = HEK cells transfected with human mGluR5a (H10H or H12H), concentration in mol/L, read-out: pEC50 (converted)
[3] = EC50 (nM), HEK cells transfected with human mGluR5a (H10H or H12H)
[4] = pEC50, HEK cells transfected with human mGluR5a (H10H or H12H), concentration in mol/L

Sequence of human mGluR5a receptor (P41594 21-1180 isoform P41594-2 limits assumed): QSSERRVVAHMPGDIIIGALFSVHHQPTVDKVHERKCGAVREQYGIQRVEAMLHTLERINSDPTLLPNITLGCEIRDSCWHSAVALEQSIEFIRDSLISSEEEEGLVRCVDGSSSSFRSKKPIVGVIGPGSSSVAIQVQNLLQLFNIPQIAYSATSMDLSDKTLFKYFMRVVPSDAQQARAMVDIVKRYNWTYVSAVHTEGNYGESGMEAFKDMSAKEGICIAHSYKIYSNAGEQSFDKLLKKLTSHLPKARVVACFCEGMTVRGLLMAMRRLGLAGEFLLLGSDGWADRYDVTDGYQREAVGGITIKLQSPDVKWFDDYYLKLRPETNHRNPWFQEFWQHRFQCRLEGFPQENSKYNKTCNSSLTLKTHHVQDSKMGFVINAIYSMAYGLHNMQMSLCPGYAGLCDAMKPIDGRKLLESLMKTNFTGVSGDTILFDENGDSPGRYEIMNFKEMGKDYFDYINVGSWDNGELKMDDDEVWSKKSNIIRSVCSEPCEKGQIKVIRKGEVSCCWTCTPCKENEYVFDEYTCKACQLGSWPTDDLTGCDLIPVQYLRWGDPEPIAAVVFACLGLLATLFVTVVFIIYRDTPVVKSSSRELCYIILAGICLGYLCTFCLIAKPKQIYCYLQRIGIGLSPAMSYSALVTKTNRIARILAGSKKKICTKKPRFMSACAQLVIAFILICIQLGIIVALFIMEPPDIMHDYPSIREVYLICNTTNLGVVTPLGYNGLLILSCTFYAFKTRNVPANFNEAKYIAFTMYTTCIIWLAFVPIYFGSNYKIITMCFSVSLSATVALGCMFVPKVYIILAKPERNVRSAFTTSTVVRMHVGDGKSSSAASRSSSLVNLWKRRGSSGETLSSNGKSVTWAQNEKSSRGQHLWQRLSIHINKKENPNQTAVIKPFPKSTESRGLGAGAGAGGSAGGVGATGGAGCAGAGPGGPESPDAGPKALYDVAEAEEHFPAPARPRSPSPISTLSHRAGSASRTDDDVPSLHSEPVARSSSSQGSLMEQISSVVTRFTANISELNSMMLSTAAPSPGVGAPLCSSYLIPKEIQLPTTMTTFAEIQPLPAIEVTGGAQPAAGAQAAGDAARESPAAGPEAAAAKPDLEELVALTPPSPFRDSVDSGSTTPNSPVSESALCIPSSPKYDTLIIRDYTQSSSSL

| Compound | EC50 (human mGluR5a receptor; [1]) [nM] | Emax (human mGluR5a receptor) [%] | melting point [°C] | EC50 (human mGluR5a receptor; [2]) [nM] | EC50 (human mGluR5a receptor; [3]) [nM] | EC50 (human mGluR5a receptor; [4]) [nM] |
| --- | --- | --- | --- | --- | --- | --- |
| O=c1[nH]ccc2nc(COc3ccccc3)cn12 [compound 1, 2-phenoxymethyl-6H-imidazo[1,2-c]pyrimidin-5-one] | > 30200 | 19 |  |  |  |  |
| Cn1ccc2nc(COc3ccccc3)cn2c1=O [compound 2] | > 10000 | 69 | 130.9 |  |  |  |
| O=c1n(-c2ccc(F)cc2)ccc2nc(COc3ccccc3)cn12 [compound 3] | 392 | 79 | 142.3 | 269 |  |  |
| O=c1n(-c2cccc(F)c2)ccc2nc(COc3ccccc3)cn12 [compound 4] |  | 68 | 123.4 |  | 525 | 513 |
| O=c1n(-c2ccc(F)c(F)c2)ccc2nc(COc3ccccc3)cn12 [compound 5] |  | 79 | 296.6 | 214 | 228 |  |
| O=c1n(-c2ccc(F)cc2)ccc2nc(COc3cccc(F)c3)cn12 [compound 6] |  | 73 | 141.1 | 214 | 224 |  |
| O=c1n(Cc2ccccc2)ccc2nc(COc3ccccc3)cn12 [compound 7] | 1240 | 80 | 122.3 |  |  |  |
| Cc1cccc(-n2ccc3nc(COc4ccccc4)cn3c2=O)n1 [compound 8] | 2290 | 43 | > 300 | 2190 |  |  |
| O=c1n(-c2ccc(F)cn2)ccc2nc(COc3ccccc3)cn12 [compound 9] | 490 | 75 |  |  |  |  |
| Cc1nc(-n2ccc3nc(COc4ccccc4)cn3c2=O)ccc1F [compound 10] | 292 | 70 | 199.5 |  |  |  |
| Cc1ccc(-n2ccc3nc(COc4ccccc4)cn3c2=O)nc1 [compound 11] | 1320 | 59 | 209.4 | 1150 |  |  |
| Cc1cccc(OCc2cn3c(=O)n(-c4ccc(F)cc4)ccc3n2)c1 [compound 12] | 468 | 33 |  | 513 |  |  |
| N#Cc1cccc(OCc2cn3c(=O)n(-c4ccc(F)cc4)ccc3n2)c1 [compound 13] | 350 | 40 | 165 |  |  |  |
| O=c1n(-c2ccc(F)cc2)ccc2nc(COc3ccc(F)cc3)cn12 [compound 14] | 302 | 72 | 163.4 | 309 |  |  |
| Cc1ccnc(-n2ccc3nc(COc4ccccc4)cn3c2=O)c1 [compound 15] | 8320 | 51 | 239.4 | > 10000 |  |  |
| O=c1n(-c2cccc(C(F)(F)F)c2)ccc2nc(COc3ccc(F)cc3)cn12 [compound 16] | 1290 | 50 | > 300 | 1170 |  |  |
| O=c1n(CC2CC2)ccc2nc(COc3ccccc3)cn12 [compound 17] |  | 51 | 102.1 | 1050 | 1100 |  |
| O=c1n(-c2ccc(F)cc2)ccc2nc(COc3ccccn3)cn12 [compound 18] | 2510 | 66 | 282.3 | 2140 |  |  |
| O=c1n(-c2ccc(F)cc2)ccc2nc(COc3cccnc3)cn12 [compound 19] | > 30200 | 59 | > 300 |  |  |  |

| Compound | EC50 (human mGluR5a receptor; [1]) [nM] | Emax (human mGluR5a receptor) [%] | melting point [°C] | EC50 (human mGluR5a receptor; [2]) [nM] | EC50 (human mGluR5a receptor; [3]) [nM] | EC50 (human mGluR5a receptor; [4]) [nM] |
| --- | --- | --- | --- | --- | --- | --- |
| O=c1n(-c2ccc(F)cc2)cc(F)c2nc(COc3ccccc3)cn12 [compound 20] | 78 | 73 | 110.7 | 85.1 |  |  |
| O=c1n(-c2cccc(C(F)(F)F)c2)ccc2nc(COc3ccc(Cl)cc3)cn12 [compound 21] | > 10000 |  | 141.8 |  |  |  |
| N#Cc1ccc(OCc2cn3c(=O)n(-c4cccc(C(F)(F)F)c4)ccc3n2)cc1 [compound 22] | > 10000 |  | 189.4 |  |  |  |
| Cc1cc(-n2ccc3nc(COc4ccccc4)cn3c2=O)ncc1F [compound 23] | 327 | 60 | 203.1 | 331 |  |  |
| CN(C)c1cccc(-n2ccc3nc(COc4ccccc4)cn3c2=O)n1 [compound 24] | 201 | 64 | 136 | 209 |  |  |
| COc1nccc(-n2ccc3nc(COc4ccccc4)cn3c2=O)n1 [compound 25, 6-(2-methoxy-pyrimidin-4-yl)-2-phenoxymethyl-6H-imidazo[1,2-c]pyrimidin-5-one] | 570 | 46 | 171.2 |  |  |  |
| Cc1cn(-c2ccc(F)cc2)c(=O)n2cc(COc3ccccc3)nc12 [compound 27, 6-(4-fluoro-phenyl)-8-methyl-2-phenoxymethyl-6H-imidazo[1,2-c]pyrimidin-5-one] | > 30200 | 16 | 146.9 |  |  |  |
| Cc1cc2nc(COc3ccccc3)cn2c(=O)n1-c1ccc(F)cc1 [compound 28] | 1860 | 49 | 143.6 | 1480 |  |  |
| O=c1n(-c2ccc(F)cc2)ccc2nc(COc3ccccc3)c(Cl)n12 [compound 29, 3-chloro-6-(4-fluoro-phenyl)-2-phenoxymethyl-6H-imidazo[1,2-c]pyrimidin-5-one] | > 30200 | 17 | 170.3 |  |  |  |
| O=C1N(c2ccc(F)cc2)CCc2nc(COc3ccccc3)cn21 [compound 31] | 97 | 71 | 195.2 | 102 |  |  |
| O=C1N(c2cccc(F)c2)CCc2nc(COc3ccccc3)cn21 [compound 32] |  | 70 | > 300 | 245 | 226 |  |
| O=C1N(c2ccc(F)c(F)c2)CCc2nc(COc3ccccc3)cn21 [compound 33] | 97 | 75 | 165.4 | 102 |  |  |
| O=C1N(c2ccc(F)cc2)CCc2nc(COc3cccc(F)c3)cn21 [compound 34] | 65 | 73 | 141.1 |  |  | 67.6 |
| O=C1N(c2ccc(F)cc2)CCc2nc(COc3ccc(F)cc3)cn21 [compound 35, 2-(4-fluoro-phenoxymethyl)-6-(4-fluoro-phenyl)-7,8-dihydro-6H-imidazo[1,2-c]pyrimidin-5-one] | 188 | 68 | 182.3 | 170 |  |  |
| Cc1ccc(N2CCc3nc(COc4ccccc4)cn3C2=O)nc1 [compound 36, 6-(5-methyl-pyridin-2-yl)-2-phenoxymethyl-7,8-dihydro-6H-imidazo[1,2-c]pyrimidin-5-one] | 468 | 63 |  |  |  |  |
| Cc1cccc(OCc2cn3c(n2)CCN(c2ccc(F)cc2)C3=O)c1 [compound 37, 6-(4-fluoro-phenyl)-2-m-tolyloxymethyl-7,8-dihydro-6H-imidazo[1,2-c]pyrimidin-5-one] | 191 | 48 | 169.3 | 204 |  |  |
| Cc1nc(N2CCc3nc(COc4ccccc4)cn3C2=O)ccc1F [compound 38] | 166 | 72 |  |  |  | 178 |
| O=C1N(c2ccc(F)cn2)CCc2nc(COc3ccccc3)cn21 [compound 39] | 389 | 64 | 135 | 316 |  |  |
